This note sets out measurements from patent US20220249819A1, “MICRONEEDLES, AND METHODS FOR THE MANUFACTURE THEREOF” (UNIVERSITY COLLEGE CORK - NATIONAL UNIVERSITY OF IRELAND, …, priority 2019, published 2022).

The structures appear in SMILES notation.

Type in all cases: physicochemical
A short description of data set [1]: Ability to form a glassy, amorphous form following heat-melting and cooling (XRD). Here is the method:
As used herein, the term “meltable drug” or “meltable active pharmaceutical ingredient” refers to an active pharmaceutical ingredient that can be heat-melted to a molten form and has the following properties: • solid at 25° C.; • ability to form a glassy, amorphous form following heat-melting and cooling; and • the amorphous form having a glass transition temperature typically greater than 25° C. Examples of meltable drugs include; antifungals (for example, Itraconazole, Clotrimazole, Ketoconazole, Fluconazole, or derivatives or variants thereof), corticosteroids (for example, Estradiol, betamethasone valerate or derivatives or variants thereof), Anti-inflammatory drugs (for example, Celecoxib, Diclofenac, Sulindac, Indomethacin), Antimicrobials and Antibiotics (for example, Cefuroxime […], Chloramphenicol or derivatives or variants thereof), Cardiovascular and Antihypertensives (Carvedilol, Nifedipine or derivatives or variants thereof), Autonomic nervous system and Psychiatrics medications (Droperidol or derivatives or variants thereof), Antilipidemic and Cholesterol medications (Probucol, Simvastatin or derivatives or variants thereof), Gastrointestinal medications (Famotidine, Omeprazole or derivatives or variants thereof), Respiratory medications, Endocrine medications, Immunomodulators, Oncology drugs, Renal medications, Neurologic medications and anti-migraine (Zolmitriptan or derivatives or variants thereof). Typically, the meltable drug forms a stable amorphous form following melting and cooling; in this context, the formation of amorphous structure is confirmed by the XRD technique. X-ray powder Diffraction (XRD) is an analytical technique primarily used for phase identification of a crystalline material, in which the crystalline structure causes a beam of incident X-rays to diffract into many specific directions. It works best for materials that are crystalline or partially crystalline (i.e., that have periodic structural order) but is also used to study non-crystalline materials FIG. 3.

A short description of data set [2]: Glass transition temperature (Tg) of meltable drug in amorphous form by Differential Scanning calorimetry (DSC). From the text:
(§1) The meltable active pharmaceutical ingredient forms a stable amorphous form following melting and cooling; in this context, the term “stable” as applied to the amorphous form means that the thermodynamic tendency of the active pharmaceutical ingredient to crystallize over one year is resisted. […] In this context, minimal degradation means that at least 90% of the active pharmaceutical ingredient retains its therapeutic activity following melting and cooling. […] Also, analysis of ^1H and ^13C NMR confirmed the chemical structure of ITZ, with molecular formula C35H38Cl2N8O4. […] Which indicating the chemical stability of both ITZ melts (FIG. 5). Differential Scanning calorimetry (DSC) may be employed to determine the glass transition temperature (Tg) of a meltable drug in amorphous form DSC utilizes a heat flow technique and compares the amount of heat supplied to the test sample and a similarly heated “reference” to determine transition points. Tg is typically calculated by using a half-height technique in the transition region FIG. 6.

Data set [3] is described as follows: Chemical stability before and after melting for microneedle fabrication (LC-MS, 1H and 13C NMR).
From the text: as §1

Regarding `Clc1ccccc1C(c1ccccc1)(c1ccccc1)n1ccnc1` [Clotrimazole], the “GLASSY AND AMORPHOPUS FORM” value in data set [1] was “YES”. Moreover, the “GLASS TRANSITION TEMP (TG ° C.)” value in data set [2] turned out to be 32 °C.
For `CC(=O)N1CCN(c2ccc(OCC3COC(Cn4ccnc4)(c4ccc(Cl)cc4Cl)O3)cc2)CC1` (centres unmarked) [Ketoconazole], in that order: “YES” and 46 °C.
With `CCC(C)n1ncn(-c2ccc(N3CCN(c4ccc(OCC5COC(Cn6cncn6)(c6ccc(Cl)cc6Cl)O5)cc4)CC3)cc2)c1=O` (centres unmarked) [ITZ melt2], the “chemical stability of melts (1H and 13C NMR difference versus unmelted ITZ)” value in data set [3] is “No difference”.
For `CC1=C(CC(=O)O)c2cc(F)ccc2/C1=C\c1ccc([S+](C)[O-])cc1` (centres unmarked) [Sulindac], the “GLASSY AND AMORPHOPUS FORM” value in data set [1] was “YES”. The “GLASS TRANSITION TEMP (TG ° C.)” value in data set [2] was determined as 75 °C.
For `CCCCC(=O)O[C@]1(C(=O)CO)[C@@H](C)C[C@H]2[C@@H]3CCC4=CC(=O)C=C[C@]4(C)[C@@]3(F)[C@@H](O)C[C@@]21C` [Betamethazone valerate], in data set [1], the “GLASSY AND AMORPHOPUS FORM” value was “YES”. For the same compound, the “GLASS TRANSITION TEMP (TG ° C.)” value in data set [2] worked out at 54 °C.
The matching figures for `OC(Cn1cncn1)(Cn1cncn1)c1ccc(F)cc1F` [Fluconazole]: “YES” and 32 °C.
On to `CCC(C)n1ncn(-c2ccc(N3CCN(c4ccc(OCC5COC(Cn6cncn6)(c6ccc(Cl)cc6Cl)O5)cc4)CC3)cc2)c1=O` (centres unmarked) [ITZ melt1], for which the “chemical stability of melts (1H and 13C NMR difference versus unmelted ITZ)” value in data set [3] is “No difference”.
As to `COc1ccc2c(c1)c(CC(=O)O)c(C)n2C(=O)c1ccc(Cl)cc1` [Indomethacin], the “GLASSY AND AMORPHOPUS FORM” value in data set [1] is on record as “YES”. The “GLASS TRANSITION TEMP (TG ° C.)” value in data set [2] was 45 °C.
In the case of `CCC(C)n1ncn(-c2ccc(N3CCN(c4ccc(OCC5COC(Cn6cncn6)(c6ccc(Cl)cc6Cl)O5)cc4)CC3)cc2)c1=O` (centres unmarked) [Itraconazole], the “stability before and after melting (LC-MS fragmentation pattern)” value in data set [3] (LC-MS, ITZ vs ITZ melt) is “high stability”.
Turning to `O=C(O)Cc1ccccc1Nc1c(Cl)cccc1Cl` [Diclofenac], in data set [1], the “GLASSY AND AMORPHOPUS FORM” value was “YES”. For the same compound, the “GLASS TRANSITION TEMP (TG ° C.)” value in data set [2] was determined as 53 °C.
